Data taken from the NIST ThermoML archive (doi:10.1016/j.jct.2011.08.016).
Numbers after ± are expanded uncertainties.

Assay: xn = mol fraction of the nth substance listed
Conditions: Liquid, Vibrating tube method

CCCCCCCCCC [decane] + CCCCCCCC
Conditions | mass density [kg/m3]
333.12 K, 16000 kPa, x2 = 0.2801 | 707.59 ± 0.49
333.12 K, 17000 kPa, x2 = 0.0616 | 713.28 ± 0.49
333.12 K, 17000 kPa, x2 = 0.2801 | 708.43 ± 0.5
333.12 K, 18000 kPa, x2 = 0.0616 | 714.06 ± 0.5
333.12 K, 18000 kPa, x2 = 0.2801 | 709.25 ± 0.5
333.12 K, 19000 kPa, x2 = 0.0616 | 714.88 ± 0.5
333.12 K, 19000 kPa, x2 = 0.2801 | 710.06 ± 0.51
333.12 K, 20000 kPa, x2 = 0.0616 | 715.65 ± 0.51
333.12 K, 20000 kPa, x2 = 0.2801 | 710.83 ± 0.52
333.12 K, 21000 kPa, x2 = 0.0616 | 716.44 ± 0.52
333.12 K, 21000 kPa, x2 = 0.2801 | 711.62 ± 0.52
333.12 K, 22000 kPa, x2 = 0.0616 | 717.15 ± 0.52
333.12 K, 22000 kPa, x2 = 0.2801 | 712.4 ± 0.53
333.12 K, 23000 kPa, x2 = 0.0616 | 717.89 ± 0.53
333.12 K, 23000 kPa, x2 = 0.2801 | 713.12 ± 0.54
333.12 K, 24000 kPa, x2 = 0.0616 | 718.59 ± 0.54
333.12 K, 24000 kPa, x2 = 0.2801 | 713.84 ± 0.54
333.12 K, 25000 kPa, x2 = 0.0616 | 719.3 ± 0.54
333.12 K, 25000 kPa, x2 = 0.2801 | 714.53 ± 0.55
333.13 K, 1000 kPa, x2 = 0.5314 | 686.94 ± 0.42
333.13 K, 1000 kPa, x2 = 0.9623 | 672.68 ± 0.42
333.13 K, 2000 kPa, x2 = 0.5314 | 687.94 ± 0.42
333.13 K, 2000 kPa, x2 = 0.9623 | 673.73 ± 0.43
333.13 K, 3000 kPa, x2 = 0.5314 | 688.95 ± 0.43
333.13 K, 3000 kPa, x2 = 0.9623 | 674.77 ± 0.43
333.13 K, 4000 kPa, x2 = 0.5314 | 689.94 ± 0.43
333.13 K, 4000 kPa, x2 = 0.9623 | 675.8 ± 0.44
333.13 K, 5000 kPa, x2 = 0.5314 | 690.92 ± 0.44
333.13 K, 5000 kPa, x2 = 0.9623 | 676.82 ± 0.44
333.13 K, 6000 kPa, x2 = 0.5314 | 691.92 ± 0.44
333.13 K, 6000 kPa, x2 = 0.9623 | 677.85 ± 0.45
333.13 K, 7000 kPa, x2 = 0.5314 | 692.89 ± 0.45
333.13 K, 7000 kPa, x2 = 0.9623 | 678.88 ± 0.45
333.13 K, 8000 kPa, x2 = 0.5314 | 693.87 ± 0.45
333.13 K, 8000 kPa, x2 = 0.9623 | 679.95 ± 0.46
333.13 K, 9000 kPa, x2 = 0.5314 | 694.82 ± 0.46
333.13 K, 9000 kPa, x2 = 0.9623 | 680.98 ± 0.46
333.13 K, 10000 kPa, x2 = 0.5314 | 695.75 ± 0.46
333.13 K, 10000 kPa, x2 = 0.9623 | 681.98 ± 0.47
333.13 K, 10990 kPa, x2 = 0.5314 | 696.68 ± 0.47
333.13 K, 10990 kPa, x2 = 0.9623 | 682.99 ± 0.48
333.13 K, 12000 kPa, x2 = 0.5314 | 697.6 ± 0.47
333.13 K, 12000 kPa, x2 = 0.9623 | 683.98 ± 0.48
333.13 K, 13000 kPa, x2 = 0.5314 | 698.5 ± 0.48
333.13 K, 13000 kPa, x2 = 0.9623 | 684.93 ± 0.49
333.13 K, 14000 kPa, x2 = 0.5314 | 699.4 ± 0.49
333.13 K, 14000 kPa, x2 = 0.9623 | 685.89 ± 0.5
333.13 K, 15000 kPa, x2 = 0.5314 | 700.28 ± 0.49
333.13 K, 15000 kPa, x2 = 0.9623 | 686.87 ± 0.5
333.13 K, 16000 kPa, x2 = 0.5314 | 701.15 ± 0.5
333.13 K, 16000 kPa, x2 = 0.9623 | 687.76 ± 0.51
333.13 K, 17000 kPa, x2 = 0.5314 | 702 ± 0.5
333.13 K, 17000 kPa, x2 = 0.9623 | 688.67 ± 0.52
333.13 K, 18000 kPa, x2 = 0.5314 | 702.88 ± 0.51
333.13 K, 18000 kPa, x2 = 0.9623 | 689.57 ± 0.52
333.13 K, 19000 kPa, x2 = 0.5314 | 703.68 ± 0.52
333.13 K, 19000 kPa, x2 = 0.9623 | 690.49 ± 0.53
333.13 K, 20000 kPa, x2 = 0.5314 | 704.48 ± 0.52
333.13 K, 20000 kPa, x2 = 0.9623 | 691.35 ± 0.54
333.13 K, 21000 kPa, x2 = 0.5314 | 705.27 ± 0.53
333.13 K, 21000 kPa, x2 = 0.9623 | 692.18 ± 0.54
333.13 K, 22000 kPa, x2 = 0.5314 | 706.05 ± 0.54
333.13 K, 22000 kPa, x2 = 0.9623 | 693 ± 0.55
333.13 K, 23000 kPa, x2 = 0.5314 | 706.81 ± 0.54
333.13 K, 23000 kPa, x2 = 0.9623 | 693.78 ± 0.56
333.13 K, 24000 kPa, x2 = 0.5314 | 707.53 ± 0.55
333.13 K, 24000 kPa, x2 = 0.9623 | 694.55 ± 0.57
333.13 K, 25000 kPa, x2 = 0.5314 | 708.26 ± 0.56
333.13 K, 25000 kPa, x2 = 0.9623 | 695.28 ± 0.57
333.14 K, 1000 kPa, x2 = 0.7736 | 679.32 ± 0.42
333.14 K, 2000 kPa, x2 = 0.7736 | 680.38 ± 0.42
333.14 K, 3000 kPa, x2 = 0.7736 | 681.42 ± 0.43
333.14 K, 4000 kPa, x2 = 0.7736 | 682.44 ± 0.43
333.14 K, 5000 kPa, x2 = 0.7736 | 683.46 ± 0.44
333.14 K, 6000 kPa, x2 = 0.7736 | 684.5 ± 0.44
333.14 K, 7000 kPa, x2 = 0.7736 | 685.49 ± 0.45
333.14 K, 8000 kPa, x2 = 0.7736 | 686.5 ± 0.46
333.14 K, 9000 kPa, x2 = 0.7736 | 687.47 ± 0.46
333.14 K, 10000 kPa, x2 = 0.7736 | 688.42 ± 0.47
333.14 K, 10990 kPa, x2 = 0.7736 | 689.42 ± 0.47
333.14 K, 12000 kPa, x2 = 0.7736 | 690.37 ± 0.48
333.14 K, 13000 kPa, x2 = 0.7736 | 691.27 ± 0.48
333.14 K, 14000 kPa, x2 = 0.7736 | 692.21 ± 0.49
333.14 K, 15000 kPa, x2 = 0.7736 | 693.1 ± 0.5
333.14 K, 16000 kPa, x2 = 0.7736 | 694.02 ± 0.5
333.14 K, 17000 kPa, x2 = 0.7736 | 694.9 ± 0.51
333.14 K, 18000 kPa, x2 = 0.7736 | 695.77 ± 0.52
333.14 K, 19000 kPa, x2 = 0.7736 | 696.62 ± 0.52
333.14 K, 20000 kPa, x2 = 0.7736 | 697.46 ± 0.53
333.14 K, 21000 kPa, x2 = 0.7736 | 698.28 ± 0.54
333.14 K, 22000 kPa, x2 = 0.7736 | 699.09 ± 0.54
333.14 K, 23000 kPa, x2 = 0.7736 | 699.86 ± 0.55
333.14 K, 24000 kPa, x2 = 0.7736 | 700.61 ± 0.56
333.14 K, 25000 kPa, x2 = 0.7736 | 701.34 ± 0.57
